Where a name gives a salt, the structure may show the parent alone.
test system: HIV; assay: Anti-HIV activity in HIV-infected human peripheral blood lymphocytes (supernatant viral RNA and p24 core protein); format: cell-based; details: Human immunodeficiency virus 1, Lymphocyte, 96 h; supernatant total viral RNA; at four days; read-out: ED50, concentration of drug giving 50% inhibition of production of viral RNA
Procedure: Human peripheral blood lymphocytes were isolated from the buffy coat fractions of blood donations. The lymphocytes were then stimulated with 5 μg/ml of phytohemagglutinin for 48 hours. Prior to infection with HIV, the lymphocytes were washed and resuspended in mitogen-free medium. On day 0 the cells were infected with HIV and were cultured for four days in the presence or absence of graded concentrations of 20-deoxy-20-chlorophorbol 12,13-bis[(2',4'-difluorophenyl)acetate]. On days 3 and 4 the supernatant levels of total viral RNA and viral core protein p24 were determined at each drug concentration and dose-response curves were used to determine the concentration of drug giving 50% inhibition of production of viral RNA and of p24 core protein. At four days these ED50 values were less than 100 pM for both RNA and p24.
(§1) In a manner similar to Example 111, the anti-HIV ED50 values for RNA [drug concentration is in brackets] for the following diterpenoid compounds were determined from dose-response curves or by estimation from one or more experimental drug concentrations.
as §1, with “indolactam-type” for “diterpenoid”, “concentrations, data giving percent inhibition of viral RNA production at selected concentrations appear in parentheses:” for “concentrations.”
as §1, with “diacylglycero-type” for “diterpenoid”, “concentrations; data giving percent inhibition of viral RNA production at selected concentrations appear in parentheses: […]” for “concentrations.”

`CC1=C[C@H]2[C@@]3(O)[C@H](C)[C@@H](OC(=O)Cc4ccc(F)cc4F)[C@]4(OC(=O)Cc5ccc(F)cc5F)[C@H]([C@@H]3C=C(CCl)C[C@]2(O)C1=O)C4(C)C` [20-deoxy-20-chlorophorbol 12,13-bis[(2',4'-difluorophenyl)acetate]] was tested, and the EC50 was < 0.1 nM.

same assay, conditions: Human immunodeficiency virus 1, Lymphocyte, 96 h; supernatant viral core protein p24; at four days; read-out: ED50, concentration of drug giving 50% inhibition of production of p24 core protein

With `CC1=C[C@H]2[C@@]3(O)[C@H](C)[C@@H](OC(=O)Cc4ccc(F)cc4F)[C@]4(OC(=O)Cc5ccc(F)cc5F)[C@H]([C@@H]3C=C(CCl)C[C@]2(O)C1=O)C4(C)C` [20-deoxy-20-chlorophorbol 12,13-bis[(2',4'-difluorophenyl)acetate]] the EC50 was < 0.1 nM.

same assay, conditions: Human immunodeficiency virus 1, Lymphocyte, read-out: percent inhibition of viral RNA production

In order of falling inhibition at 10 µM:
1. CCCCCCCCc1ccc2c3c(c[nH]c13)C[C@@H](COC(=O)NC)NC(=O)[C@H](C(C)C)N2C [14-O-(N-Methyl)carbamoyl-7-octyl-(9S,12S)-indolactam V]  87%
2. CNC(=O)OC[C@@H]1Cc2cn(CC[P+](c3ccccc3)(c3ccccc3)c3ccccc3)c3cccc(c23)N(C)[C@@H](C(C)C)C(=O)N1 (relative stereo) [rac-14-O-(N-methyl)carbamoyl-1-N-(2'-triphenylphosphonium)ethylindolactam V, methanesulfonate salt]  82%
3. CNC(=O)OC[C@@H]1Cc2c[nH]c3cccc(c23)N(C)[C@@H](C(C)C)C(=O)N1 (relative stereo) [rac-14-O-(N-methyl)carbamoylindolactam V]  52%

same assay, conditions: Human immunodeficiency virus 1, Lymphocyte; at 10 μM; read-out: percent inhibition of viral RNA production

`CCOC(=O)[C@@H]1Cc2cn(CO)c3cccc(c23)N(C)[C@@H](C(C)C)C(=O)N1` [1-N-hydroxymethyl-9-deshydroxymethyl-9-ethoxycarbonylindolactam V] showed an inhibition at 10 µM of 31%.

same assay, conditions: Human immunodeficiency virus 1, Lymphocyte; from dose-response curves or by estimation from one or more experimental drug concentrations; read-out: anti-HIV ED50 for RNA

Going from `CC1=C[C@H]2[C@@]3(O)[C@H](C)[C@@H](OC(=O)Cc4ccc(F)cc4F)[C@]4(OC(=O)Cc5ccc(F)cc5F)[C@H]([C@@H]3C=C(CBr)C[C@]2(O)C1=O)C4(C)C` [20-deoxy-20-bromophorbol 12,13-bis[(2',4'-difluorophenyl)acetate]] to `CC1=C[C@H]2[C@@]3(O)[C@H](C)[C@@H](OC(=O)Cc4ccc(F)cc4F)[C@]4(OC(=O)Cc5ccc(F)cc5F)[C@H]([C@@H]3C=C(CN)C[C@]2(O)C1=O)C4(C)C` [20-deoxy-20-aminophorbol 12,13-bis[(2',4'-difluorophenyl)acetate]], the EC50 rises from < 1 nM to 100 nM. The first is the more potent here.

First: CC1=C[C@H]2[C@@]3(O)[C@H](C)[C@@H](OC(=O)Cc4ccc(F)cc4F)[C@]4(OC(=O)Cc5ccc(F)cc5F)[C@H]([C@@H]3C=C(CSCCS)C[C@]2(O)C1=O)C4(C)C [20-deoxy-20-(2'-mercaptoethylthio)phorbol 12,13-bis[(2',4'-difluorophenyl)acetate]]
Second: CC1=C[C@H]2[C@@]3(O)[C@H](C)[C@@H](OC(=O)Cc4ccc(F)cc4F)[C@]4(OC(=O)Cc5ccc(F)cc5F)[C@H]([C@@H]3C=C(CSCCO)C[C@]2(O)C1=O)C4(C)C [20-deoxy-20-(2'-hydroxyethylthio)phorbol 12,13-bis[(2',4'-difluorophenyl)acetate]]
The EC50 of the first is 20-fold lower: 50 nM for the first, 1000 nM for the second.

First: CC1=C[C@H]2[C@@]3(O)[C@H](C)[C@@H](OC(=O)Cc4ccc(F)cc4F)[C@]4(OC(=O)Cc5ccc(F)cc5F)[C@H]([C@@H]3C=C(CSCC(O)CO)C[C@]2(O)C1=O)C4(C)C (stereo partly drawn) [20-deoxy-20-(2',3'-dihydroxypropylthio)phorbol 12,13-bis[(2',4'-difluorophenyl)acetate]]
Second: CCCSCC1=C[C@H]2[C@@H]3C(C)(C)[C@]3(OC(=O)Cc3ccc(F)cc3F)[C@H](OC(=O)Cc3ccc(F)cc3F)[C@@H](C)[C@]2(O)[C@@H]2C=C(C)C(=O)[C@@]2(O)C1 [20-deoxy-20-propylthiophorbol 12,13-bis[(2',4'-difluorophenyl)acetate]]
The EC50 of the first is 300-fold higher: 3000 nM for the first, 10 nM for the second.

Compared with `CC1=C[C@H]2[C@@]3(O)[C@H](C)[C@@H](OC(=O)Cc4c(F)c(F)c(F)c(F)c4F)[C@]4(OC(=O)Cc5c(F)c(F)c(F)c(F)c5F)[C@H]([C@@H]3C=C(CCl)C[C@]2(O)C1=O)C4(C)C` [20-deoxy-20-chlorophorbol 12,13-bis[(pentafluorophenyl)acetate]], `CC1=C[C@H]2[C@@]3(O)[C@H](C)[C@@H](OC(=O)Cc4c(F)c(F)c(F)c(F)c4F)[C@]4(OC(=O)Cc5c(F)c(F)c(F)c(F)c5F)[C@H]([C@@H]3C=C(CF)C[C@]2(O)C1=O)C4(C)C` [20-deoxy-20-fluorophorbol 12,13-bis[(pentafluorophenyl)acetate]] is higher in EC50: < 1 nM for the first, 1 nM for the second.

Compared with `CCCCCCCCCCCCCC(=O)O[C@@H]1[C@@H](C)[C@@]2(O)[C@@H](C=C(C[S+]([O-])CCO)C[C@]3(O)C(=O)C(C)=C[C@@H]23)[C@@H]2C(C)(C)[C@]12OC(C)=O` (stereo partly drawn) [20-deoxy-20-(2'-hydroxyethylsulfinyl)phorbol 12-myristate 13-acetate], `CCCCCCCCCCCCCC(=O)O[C@@H]1[C@@H](C)[C@@]2(O)[C@@H](C=C(CS(=O)(=O)CCO)C[C@]3(O)C(=O)C(C)=C[C@@H]23)[C@@H]2C(C)(C)[C@]12OC(C)=O` [20-deoxy-20-(2'-hydroxyethylsulfonyl)phorbol 12-myristate 13-acetate] is 2.2-fold lower in EC50: 1100 nM for the first, 500 nM for the second. The second is the more potent here.

First: CC1=C[C@H]2[C@@]3(O)[C@H](C)[C@@H](OC(=O)Cc4ccc(F)cc4F)[C@]4(OC(=O)Cc5ccc(F)cc5F)[C@H]([C@@H]3C=C(C#N)C[C@]2(O)C1=O)C4(C)C [6-deshydroxymethyl-6-cyanophorbol 12,13-bis[(2',4'-difluorophenyl)acetate]]
Second: CC1=C[C@H]2[C@@]3(O)[C@H](C)[C@@H](OC(=O)Cc4ccc(F)cc4F)[C@]4(OC(=O)Cc5ccc(F)cc5F)[C@H]([C@@H]3C=C(C=NO)C[C@]2(O)C1=O)C4(C)C [20-deoxy-20-hydroximinophorbol 12,13-bis[(2',4'-difluorophenyl)acetate]]
The EC50 of the first is lower: < 100 nM for the first, 5500 nM for the second.

Going from `CCCCCCCCCCCCCC(=O)O[C@@H]1[C@@H](C)[C@@]2(O)[C@@H](C=C(COC(=O)Nc3ccc(F)c([N+](=O)[O-])c3)C[C@]3(O)C(=O)C(C)=C[C@@H]23)[C@@H]2C(C)(C)[C@]12OC(C)=O` [phorbol 12-myristate 13-acetate 20-(4'-fluoro-3'-nitrophenyl)carbamate] to `CCC[S+]([O-])CC1=C[C@H]2[C@@H]3C(C)(C)[C@]3(OC(=O)Cc3ccc(F)cc3F)[C@H](OC(=O)Cc3ccc(F)cc3F)[C@@H](C)[C@]2(O)[C@@H]2C=C(C)C(=O)[C@@]2(O)C1` (stereo partly drawn) [20-deoxy-20-(propylsulfinyl)phorbol 12,13-bis[(2',4'-difluorophenyl)acetate]], the EC50 falls from 4000 nM to 500 nM (8-fold). The second is the more potent here.

Going from `CC1=C[C@H]2[C@@]3(O)[C@H](C)[C@@H](OC(=O)Cc4ccc(F)cc4F)[C@]4(OC(=O)Cc5ccc(F)cc5F)[C@H]([C@@H]3C=C(CN=[N+]=[N-])C[C@]2(O)C1=O)C4(C)C` [20-deoxy-20-azidophorbol 12,13-bis[(2',4'-difluorophenyl)acetate]] to `CC1=C[C@H]2[C@@]3(O)[C@H](C)[C@@H](OC(=O)Cc4ccc(F)cc4F)[C@]4(OC(=O)Cc5ccc(F)cc5F)[C@H]([C@@H]3C=C(C[S+]([O-])CCO)C[C@]2(O)C1=O)C4(C)C` (stereo partly drawn) [20-deoxy-20-(2'-hydroxyethylsulfinyl)phorbol 12,13-bis[(2',4'-difluorophenyl)acetate]], the EC50 rises from 65 nM to 1600 nM (25-fold). The first is the more potent here.

First: COC(=O)C1=C[C@H]2[C@@H]3C(C)(C)[C@]3(OC(=O)Cc3ccc(F)cc3F)[C@H](OC(=O)Cc3ccc(F)cc3F)[C@@H](C)[C@]2(O)[C@@H]2C=C(C)C(=O)[C@@]2(O)C1 [6-deshydroxymethyl-6-methoxycarbonylphorbol 12,13-bis[(2',4'-difluorophenyl)acetate]]
Second: CC1=C[C@H]2[C@@]3(O)[C@H](C)[C@@H](OC(=O)Cc4ccc(F)cc4F)[C@]4(OC(=O)Cc5ccc(F)cc5F)[C@H]([C@@H]3C=C(CSCCC(=O)O)C[C@]2(O)C1=O)C4(C)C [20-deoxy-20-(2'-carboxyethylthio)phorbol 12,13-bis(2',4'-difluorophenylacetate)]
The EC50 of the first is 2.8-fold lower: 1600 nM for the first, 4500 nM for the second. The first is the more potent here.

Going from `CC1=C[C@H]2[C@@]3(O)[C@H](C)[C@@H](OC(=O)Cc4ccc(F)cc4F)[C@]4(OC(=O)Cc5ccc(F)cc5F)[C@H]([C@@H]3C=C(C=NO)C[C@]2(O)C1=NO)C4(C)C` [20-deoxy-3-deoxo-3,20-bis(hydroximino)phorbol 12,13-bis[(2',4'-difluorophenyl)acetate]] to `CC1=C[C@H]2[C@@]3(O)[C@H](C)[C@@H](OC(=O)Cc4ccc(F)cc4F)[C@]4(OC(=O)Cc5ccc(F)cc5F)[C@H]([C@@H]3C=C(CS(=O)(=O)CCO)C[C@]2(O)C1=O)C4(C)C` [20-deoxy-20-(2'-hydroxyethylsulfonyl)phorbol 12,13-bis[(2',4'-difluorophenyl)acetate]], the EC50 rises from 45 nM to 5000 nM (110-fold). The first is the more potent here.

Compared with `CCCCCCCCc1ccc2c3c(c[nH]c13)C[C@@H](CSCCO)NC(=O)[C@H](C(C)C)N2C` [14-deoxy-14-(2'-hydroxyethylthio)-7-octyl-(9S,12S)-indolactam V], `CC(C)[C@H]1C(=O)N[C@H](CSCCO)Cc2c[nH]c3cccc(c23)N1C` [14-deoxy-14-(2'-hydroxyethylthio)indolactam V] is 10-fold higher in EC50: 100 nM for the first, 1000 nM for the second.

same assay, conditions: at 10 μM

In order of falling “percent inhibition of viral RNA production” value:
1. 9-deshydroxymethyl-9-ethoxycarbonylindolactam V  47%
2. 9-Deshydroxymethyl-9-[N-(2',3'-dihydroxy)propyl]carboxamidoindolactam V  22%
